Measurements as given in PubChem BioAssay (NCI).
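Briefly, cells in 96-well plates were exposed to five compound concentrations for 48 h, and endpoints were estimated by linear interpolation. GI50: concentration for 50% inhibition of growth. The concentration for full growth arrest is given as TGI.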

How the values were obtained:
Experiment in all cases: NCI tumour cell line growth inhibition, 48 h
[1] = test system: A498 renal
[2] = test system: A549 NSCLC
[3] = test system: BT-549 breast
[4] = test system: CAKI-1 renal
[5] = test system: CCRF-CEM leukemia
[6] = test system: COLO 205 colon
[7] = test system: DU-145 prostate
[8] = test system: EKVX NSCLC
[9] = test system: HCC-2998 colon
[10] = test system: HCT-116 colon
[11] = test system: HL-60(TB) leukemia
[12] = test system: HOP-62 NSCLC
[13] = test system: HS 578T breast
[14] = test system: HT29 colon
[15] = test system: K-562 leukemia
[16] = test system: MALME-3M melanoma
[17] = test system: MCF7 breast
[18] = test system: MDA-MB-231 breast
[19] = test system: MDA-MB-435
[20] = test system: MOLT-4 leukemia
[21] = test system: NCI-H460 lung
[22] = test system: NCI-H522 lung
[23] = test system: NCI/ADR-RES ovarian
[24] = test system: OVCAR-4 ovarian
[25] = test system: OVCAR-5 ovarian
[26] = test system: OVCAR-8 ovarian
[27] = test system: RPMI-8226 leukemia
[28] = test system: SF-268 CNS
[29] = test system: SF-295 CNS
[30] = test system: SK-MEL-2 melanoma
[31] = test system: SK-MEL-28 melanoma
[32] = test system: SK-MEL-5 melanoma
[33] = test system: SK-OV-3 ovarian
[34] = test system: SN12C renal
[35] = test system: SNB-75 CNS
[36] = test system: SR leukemia
[37] = test system: SW-620 colon
[38] = test system: T-47D breast
[39] = test system: TK-10 renal
[40] = test system: UACC-257 melanoma
[41] = test system: UACC-62 melanoma

Compound `C#Cc1ccc(NC(=O)c2ccc(/C=C/C(=O)c3nccn3C)cc2)c(F)c1` has a GI50 [1] of 2500 nM, a TGI [1] greater than 50000 nM and a GI50 [2] of 1510 nM. The TGI [2] was greater than 50000 nM, the GI50 [3] was 823 nM and the TGI [3] was 2250 nM. For the same compound, the GI50 [4] was 2270 nM, the TGI [4] was greater than 50000 nM and the GI50 [5] was 1080 nM. For the same compound, the TGI [5] was 5850 nM, the GI50 [6] was 4020 nM and the TGI [6] was greater than 50000 nM. It also gave a GI50 [7] of 1810 nM, a TGI [7] of 45600 nM and a GI50 [8] of 1410 nM. For the same compound, the TGI [8] was greater than 50000 nM, the GI50 [9] was 1740 nM and the TGI [9] was greater than 50000 nM. For the same compound, the GI50 [10] was 876 nM, the TGI [10] was 1940 nM and the GI50 [11] was 844 nM. For the same compound, the TGI [11] was 2430 nM, the GI50 [12] was 1540 nM and the TGI [12] was greater than 50000 nM. The GI50 [13] was 1880 nM, the TGI [13] was greater than 50000 nM and the GI50 [14] was 1490 nM. It also gave a TGI [14] greater than 50000 nM, a GI50 [15] of 853 nM and a TGI [15] greater than 50000 nM. For the same compound, the GI50 [16] was 3760 nM, the TGI [16] was greater than 50000 nM and the GI50 [17] was 1290 nM. For the same compound, the TGI [17] was greater than 50000 nM, the GI50 [18] was 2140 nM and the TGI [18] was 22400 nM. It also gave a GI50 [19] of 1860 nM, a TGI [19] greater than 50000 nM and a GI50 [20] of 1370 nM. The TGI [20] was 5420 nM, the GI50 [21] was 1120 nM and the TGI [21] was 2680 nM. For the same compound, the GI50 [22] was 2160 nM, the TGI [22] was greater than 50000 nM and the GI50 [23] was 1500 nM. For the same compound, the TGI [23] was greater than 50000 nM, the GI50 [24] was 2650 nM and the TGI [24] was greater than 50000 nM. It also gave a GI50 [25] of 1770 nM, a TGI [25] greater than 50000 nM and a GI50 [26] of 1910 nM. It also gave a TGI [26] greater than 50000 nM, a GI50 [27] of 522 nM and a TGI [27] of 2140 nM. It also gave a GI50 [28] of 1630 nM, a TGI [28] greater than 50000 nM and a GI50 [29] of 1740 nM. It also gave a TGI [29] of 16800 nM, a GI50 [30] greater than 50000 nM and a TGI [30] greater than 50000 nM. The GI50 [31] was greater than 50000 nM, the TGI [31] was greater than 50000 nM and the GI50 [32] was 2040 nM. For the same compound, the TGI [32] was greater than 50000 nM, the GI50 [33] was 2530 nM and the TGI [33] was greater than 50000 nM. For the same compound, the GI50 [34] was 1440 nM, the TGI [34] was greater than 50000 nM and the GI50 [35] was 1000 nM. It also gave a TGI [35] of 4340 nM, a GI50 [36] of 545 nM and a TGI [36] of 4440 nM. For the same compound, the GI50 [37] was 1330 nM, the TGI [37] was greater than 50000 nM and the GI50 [38] was 1840 nM. It also gave a TGI [38] greater than 50000 nM, a GI50 [39] greater than 50000 nM and a TGI [39] greater than 50000 nM. It also gave a GI50 [40] greater than 50000 nM, a TGI [40] greater than 50000 nM and a GI50 [41] of 1930 nM. For the same compound, the TGI [41] was greater than 50000 nM.
